Results reported in PubChem BioAssay AID248 (DTP/NCI, 2004).
“And” between values parts separate entries of the source, which are not always exact repeats. Equal entries are not always repeated. Toxic doses and inconclusive results are not listed. No stated cut-off is given here; in the data, active means T/C of 150% or more; inactive means T/C below 125%.

Test system: L1210 leukemia ip in BDF1 mice, survival T/C
Test: NCI In Vivo Anticancer Drug Screen. Data for tumor model L1210 Leukemia (intraperitoneal) in B6D2F1 (BDF1) mice
Details: higher = longer survival
Method in brief: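 Transplantable tumor model; survival measured in treated vs vehicle control mice. Value = treated/control.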

Measured: T/C

Cc1c2ccncc2c(C)c2c1[nH]c1ccccc12
inactive: endpoint: mean survival time, dose: 0.31 mg/kg/injection, schedule: Q#A X018 (ip), vehicle: other 102 % of control | endpoint: mean survival time, dose: 0.5 mg/kg/injection, schedule: Q01DX005 (ip), vehicle: other 105 % of control | endpoint: mean survival time, dose: 0.59 mg/kg/injection, schedule: Q03HX008 (ip), vehicle: other 94 % of control | endpoint: mean survival time, dose: 1.0 mg/kg/injection, schedule: Q01DX009 (ip), vehicle: other 111 % of control | endpoint: mean survival time, dose: 1.0 mg/kg/injection, schedule: Q01DX009 (ip), vehicle: water 107 % of control and 110 % of control | endpoint: mean survival time, dose: 1.0 mg/kg/injection, schedule: Q03HX024 (ip), vehicle: acid diluted with saline 110 % of control | endpoint: mean survival time, dose: 1.18 mg/kg/injection, schedule: Q03HX008 (ip), vehicle: other 98 % of control | endpoint: mean survival time, dose: 1.25 mg/kg/injection, schedule: Q#A X018 (ip), vehicle: other 110 % of control | endpoint: mean survival time, dose: 2.0 mg/kg/injection, schedule: Q01DX009 (ip), vehicle: other 111 % of control | endpoint: mean survival time, dose: 2.0 mg/kg/injection, schedule: Q03HX016 (ip), vehicle: clinical formulation 105 % of control | endpoint: mean survival time, dose: 2.0 mg/kg/injection, schedule: Q03HX016 (oral), vehicle: clinical formulation 95 % of control | endpoint: mean survival time, dose: 3.12 mg/kg/injection, schedule: Q01DX005 (oral), vehicle: saline 95 % of control | endpoint: mean survival time, dose: 3.12 mg/kg/injection, schedule: Q01DX009 (ip), vehicle: clinical formulation 102 % of control | endpoint: mean survival time, dose: 3.12 mg/kg/injection, schedule: Q04DX003 (ip), vehicle: clinical formulation 108 % of control | endpoint: mean survival time, dose: 3.12 mg/kg/injection, schedule: Q04DX009 (ip), vehicle: citric acid 101 % of control | endpoint: mean survival time, dose: 4.0 mg/kg/injection, schedule: Q01DX009 (oral), vehicle: clinical formulation 102 % of control | endpoint: mean survival time, dose: 4.0 mg/kg/injection, schedule: Q03HX008 (oral), vehicle: clinical formulation 109 % of control | endpoint: mean survival time, dose: 4.0 mg/kg/injection, schedule: Q03HX016 (oral), vehicle: clinical formulation 105 % of control | endpoint: mean survival time, dose: 4.0 mg/kg/injection, schedule: Q03HX024 (oral), vehicle: clinical formulation 110 % of control | endpoint: mean survival time, dose: 5.0 mg/kg/injection, schedule: Q01DX015 (oral), vehicle: carboxymethylcellulose (CMC) 105 % of control | endpoint: mean survival time, dose: 6.2 mg/kg/injection, schedule: Q01DX001 (ip), vehicle: saline 108 % of control | endpoint: mean survival time, dose: 6.2 mg/kg/injection, schedule: Q01DX Z (oral), vehicle: saline 110 % of control | endpoint: mean survival time, dose: 6.25 mg/kg/injection, schedule: Q01DX005 (oral), vehicle: saline 104 % of control | endpoint: mean survival time, dose: 6.25 mg/kg/injection, schedule: Q01DX005 (oral), vehicle: water 106 % of control | endpoint: mean survival time, dose: 6.25 mg/kg/injection, schedule: Q04DX003 (ip), vehicle: citric acid 107 % of control | endpoint: mean survival time, dose: 6.25 mg/kg/injection, schedule: Q04DX003 (ip), vehicle: clinical formulation 109 % of control and 110 % of control | endpoint: mean survival time, dose: 6.25 mg/kg/injection, schedule: Q04DX009 (ip), vehicle: citric acid 110 % of control | endpoint: mean survival time, dose: 8.0 mg/kg/injection, schedule: Q04DX003 (ip), vehicle: Klucel (hydroxypropylcellulose) (HPC) 110 % of control | endpoint: mean survival time, dose: 8.0 mg/kg/injection, schedule: Q04DX003 (ip), vehicle: acid diluted with saline 109 % of control | endpoint: mean survival time, dose: 9.37 mg/kg/injection, schedule: Q01DX001 (ip), vehicle: other 103 % of control | endpoint: mean survival time, dose: 9.37 mg/kg/injection, schedule: Q01DX001 (sc), vehicle: other 103 % of control and 104 % of control | endpoint: mean survival time, dose: 9.38 mg/kg/injection, schedule: Q01DX001 (ip), vehicle: other 100 % of control | endpoint: mean survival time, dose: 9.38 mg/kg/injection, schedule: Q04DX003 (ip), vehicle: clinical formulation 110 % of control | endpoint: mean survival time, dose: 10.0 mg/kg/injection, schedule: Q01DX015 (oral), vehicle: carboxymethylcellulose (CMC) 110 % of control | endpoint: mean survival time, dose: 12.5 mg/kg/injection, schedule: Q01DX005 (oral), vehicle: water 109 % of control | endpoint: mean survival time, dose: 12.5 mg/kg/injection, schedule: Q04DX003 (oral), vehicle: saline 106 % of control | endpoint: mean survival time, dose: 12.5 mg/kg/injection, schedule: Q04DX003 (oral), vehicle: water 104 % of control | endpoint: mean survival time, dose: 16.0 mg/kg/injection, schedule: Q03HX008 (ip), vehicle: clinical formulation 94 % of control | endpoint: mean survival time, dose: 16.0 mg/kg/injection, schedule: Q08DX002 (oral), vehicle: clinical formulation 100 % of control | endpoint: mean survival time, dose: 18.75 mg/kg/injection, schedule: Q01DX001 (sc), vehicle: other 107 % of control | endpoint: mean survival time, dose: 25.0 mg/kg/injection, schedule: Q01DX001 (oral), vehicle: saline with Tween-80 103 % of control | endpoint: mean survival time, dose: 25.0 mg/kg/injection, schedule: Q01DX001 (oral), vehicle: water 104 % of control | endpoint: mean survival time, dose: 25.0 mg/kg/injection, schedule: Q01DX009 (ip), vehicle: citric acid 108 % of control | endpoint: mean survival time, dose: 25.0 mg/kg/injection, schedule: Q01DX009 (ip), vehicle: clinical formulation 101 % of control | endpoint: mean survival time, dose: 25.0 mg/kg/injection, schedule: Q04DX003 (oral), vehicle: saline 104 % of control | endpoint: mean survival time, dose: 32.0 mg/kg/injection, schedule: Q01DX001 (oral), vehicle: clinical formulation 106 % of control | endpoint: mean survival time, dose: 32.0 mg/kg/injection, schedule: Q03HX008 (oral), vehicle: clinical formulation 110 % of control | endpoint: mean survival time, dose: 37.5 mg/kg/injection, schedule: Q01DX001 (oral), vehicle: other 110 % of control | endpoint: mean survival time, dose: 37.5 mg/kg/injection, schedule: Q01DX001 (sc), vehicle: saline 101 % of control and 109 % of control | endpoint: mean survival time, dose: 40.0 mg/kg/injection, schedule: Q#A X018 (ip), vehicle: other 105 % of control | endpoint: mean survival time, dose: 50.0 mg/kg/injection, schedule: Q01DX001 (oral), vehicle: water 104 % of control | endpoint: mean survival time, dose: 50.0 mg/kg/injection, schedule: Q01DX009 (ip), vehicle: saline with Tween-80 95 % of control | endpoint: mean survival time, dose: 50.0 mg/kg/injection, schedule: Q01DX009 (oral), vehicle: saline 110 % of control | endpoint: mean survival time, dose: 64.0 mg/kg/injection, schedule: Q04DX003 (ip), vehicle: Klucel (hydroxypropylcellulose) (HPC) 94 % of control and 95 % of control | endpoint: mean survival time, dose: 75.0 mg/kg/injection, schedule: Q01DX001 (oral), vehicle: saline 108 % of control | endpoint: mean survival time, dose: 75.0 mg/kg/injection, schedule: Q01DX001 (sc), vehicle: saline 103 % of control and 105 % of control | endpoint: mean survival time, dose: 75.0 mg/kg/injection, schedule: Q01DX009 (ip), vehicle: saline with Tween-80 98 % of control | endpoint: mean survival time, dose: 75.0 mg/kg/injection, schedule: Q04DX003 (ip), vehicle: clinical formulation 94 % of control | endpoint: mean survival time, dose: 75.0 mg/kg/injection, schedule: Q04DX003 (ip), vehicle: lactic acid 92 % of control | endpoint: mean survival time, dose: 80.0 mg/kg/injection, schedule: Q01DX009 (ip), vehicle: other 104 % of control | endpoint: mean survival time, dose: 80.0 mg/kg/injection, schedule: Q#A X018 (ip), vehicle: other 104 % of control | endpoint: mean survival time, dose: 80.0 mg/kg/injection, schedule: Q#A X018 (oral), vehicle: other 96 % of control | endpoint: mean survival time, dose: 100.0 mg/kg/injection, schedule: Q01DX009 (ip), vehicle: saline with Tween-80 93 % of control | endpoint: mean survival time, dose: 100.0 mg/kg/injection, schedule: Q04DX003 (oral), vehicle: water 110 % of control | endpoint: mean survival time, dose: 128.0 mg/kg/injection, schedule: Q01DX005 (ip), vehicle: saline 100 % of control | endpoint: mean survival time, dose: 128.0 mg/kg/injection, schedule: Q01DX009 (ip), vehicle: water 103 % of control and 108 % of control | endpoint: mean survival time, dose: 128.0 mg/kg/injection, schedule: Q08DX002 (ip), vehicle: clinical formulation 101 % of control | endpoint: mean survival time, dose: 150.0 mg/kg/injection, schedule: Q01DX001 (oral), vehicle: saline with Tween-80 108 % of control | endpoint: mean survival time, dose: 150.0 mg/kg/injection, schedule: Q01DX001 (sc), vehicle: saline 103 % of control and 110 % of control | endpoint: mean survival time, dose: 160.0 mg/kg/injection, schedule: Q01DX015 (oral), vehicle: carboxymethylcellulose (CMC) 104 % of control | endpoint: mean survival time, dose: 170.0 mg/kg/injection, schedule: Q01DX Z (oral), vehicle: saline 105 % of control | endpoint: mean survival time, dose: 200.0 mg/kg/injection, schedule: Q04DX003 (ip), vehicle: water 104 % of control | endpoint: mean survival time, dose: 256.0 mg/kg/injection, schedule: Q01DX005 (ip), vehicle: other 110 % of control | endpoint: mean survival time, dose: 256.0 mg/kg/injection, schedule: Q01DX009 (ip), vehicle: other 104 % of control | endpoint: mean survival time, dose: 300.0 mg/kg/injection, schedule: Q01DX001 (sc), vehicle: saline 110 % of control | endpoint: mean survival time, dose: 300.0 mg/kg/injection, schedule: Q04DX003 (ip), vehicle: saline with Tween-80 103 % of control | endpoint: mean survival time, dose: 300.0 mg/kg/injection, schedule: Q04DX003 (ip), vehicle: saline 100 % of control | endpoint: mean survival time, dose: 400.0 mg/kg/injection, schedule: Q04DX002 (ip), vehicle: Klucel (hydroxypropylcellulose) (HPC) 97 % of control | endpoint: mean survival time, dose: 400.0 mg/kg/injection, schedule: Q04DX003 (oral), vehicle: saline 93 % of control | endpoint: mean survival time, dose: 600.0 mg/kg/injection, schedule: Q01DX001 (ip), vehicle: Klucel (hydroxypropylcellulose) (HPC) 103 % of control | endpoint: mean survival time, dose: 600.0 mg/kg/injection, schedule: Q01DX001 (sc), vehicle: saline 109 % of control and 110 % of control | endpoint: mean survival time, dose: 960.0 mg/kg/injection, schedule: Q01DX001 (ip), vehicle: other 110 % of control | endpoint: median survival time, dose: 2.0 mg/kg/injection, schedule: Q03HX008 (oral), vehicle: other 100 % of control | endpoint: median survival time, dose: 4.0 mg/kg/injection, schedule: Q01DX009 (oral), vehicle: other 111 % of control | endpoint: median survival time, dose: 32.0 mg/kg/injection, schedule: Q01DX009 (oral), vehicle: other 100 % of control | endpoint: median survival time, dose: 32.0 mg/kg/injection, schedule: Q01DX009 (sc), vehicle: water 100 % of control | endpoint: median survival time, dose: 64.0 mg/kg/injection, schedule: Q01DX009 (oral), vehicle: other 94 % of control | endpoint: median survival time, dose: 256.0 mg/kg/injection, schedule: Q01DX001 (sc), vehicle: water 100 % of control | endpoint: median survival time, dose: 400.0 mg/kg/injection, schedule: Q04DX003 (ip), vehicle: saline with Tween-80 111 % of control
